Test results reported in patent US9975878B2, “Substituted triazine BMI-1 inhibitors” (PTC Therapeutics, Inc., priority 2013, dated 2018).

Tested on: Bmi-1 protein
Test: Sandwich ELISA Assay: Bmi-1 protein level in HT-1080 cells treated with test compounds
Type: cell-based
In short: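 HT-1080 cells exposed to compounds (final DMSO 0.5%) for 40-48 h at 37° C, 5% CO2, then lysed. Bmi-1 quantified by sandwich ELISA (mouse anti-Bmi-1 capture, rabbit anti-Bmi-1 detection, HRP anti-rabbit, TMB), read at OD450 with OD570 reference, against recombinant GST-Bmi-1 standard curve (0-8000 pg/mL).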

Nc1nc(Nc2ccc(Cl)cc2)nc(-n2c(C3CC3)nc3c(F)cccc32)n1 [Cpd 184, N-(4-chlorophenyl)-6-(2-cyclopropyl-4-fluoro-1H-benzimidazol-1-yl)-1,3,5-triazine-2,4-diamine] showed an EC50 of 10 to 100 nM.

In the case of CCc1nc2ccccc2n1-c1nc(N)nc(Nc2ccc(Cl)cc2)n1 [Cpd 162, N-(4-chlorophenyl)-6-(2-ethyl-1H-benzimidazol-1-yl)-1,3,5-triazine-2,4-diamine], the EC50 is reported as 10 to 100 nM.

For [O-][n+]1cc(Nc2ccc(C(F)(F)F)cc2)nc(-n2c(C3CC3)nc3ccccc32)n1 [Cpd 141, 3-(2-cyclopropyl-1H-benzimidazol-1-yl)-N-[4-(trifluoromethyl)phenyl]-1,2,4-triazin-5-amine 1-oxide], the EC50 was 10 to 100 nM.

CCc1nc2ccccc2n1-c1nncc(Nc2ccc(C(F)(F)F)cc2)n1 [Cpd 98, 3-(2-ethyl-1H-benzimidazol-1-yl)-N-[4-(trifluoromethyl)phenyl]-1,2,4-triazin-5-amine] gave an EC50 of 10 to 100 nM.

CCc1nc2cc(F)ccc2n1-c1nc(N)nc(Nc2ccc(OC)cc2)n1 [Cpd 173, 6-(2-ethyl-5-fluoro-1H-benzimidazol-1-yl)-N-(4-methoxyphenyl)-1,3,5-triazine-2,4-diamine] showed an EC50 of 1 to 10 nM.

CCCc1nc2ccccc2n1-c1nc(N)nc(Nc2ccc(C(F)(F)F)cc2)n1 [Cpd 127, 6-(2-propyl-1H-benzimidazol-1-yl)-N-[4-(trifluoromethyl)phenyl]-1,3,5-triazine-2,4-diamine] was tested, and the EC50 was 100 to 3000 nM.

CCc1nc2c(F)cc(F)cc2n1-c1nc(N)nc(Nc2ccc(Cl)c(F)c2)n1 [Cpd 200, N-(4-chloro-3-fluorophenyl)-6-(2-ethyl-4,6-difluoro-1H-benzimidazol-1-yl)-1,3,5-triazine-2,4-diamine] was tested, and the EC50 was 100 to 3000 nM.

With Cc1nc2ccccc2n1-c1nc(N)nc(Nc2ccc3occc3c2)n1 [Cpd 8, N-(1-benzofuran-5-yl)-6-(2-methyl-1H-benzimidazol-1-yl)-1,3,5-triazine-2,4-diamine] the EC50 was 10 to 100 nM.

In the case of CCc1nc2ccccc2n1-c1cnnc(Nc2ccc(C)cc2)n1 [Cpd 218, 5-(2-ethyl-1H-benzimidazol-1-yl)-N-(4-methylphenyl)-1,2,4-triazin-3-amine], the EC50 is reported as 1 to 10 nM.

With CCc1nc2c(F)cccc2n1-c1nc(N)nc(Nc2ccc(C(F)(F)F)cc2)n1 [Cpd 68, 6-(2-ethyl-4-fluoro-1H-benzimidazol-1-yl)-N-[4-(trifluoromethyl)phenyl]-1,3,5-triazine-2,4-diamine] the EC50 was 10 to 100 nM.

Work on Cc1nc2cc(F)c(F)cc2n1-c1nc(N)nc(Nc2ccc(OC(F)F)c(F)c2)n1 [Cpd 10, N-[4-(difluoromethoxy)-3-fluorophenyl]-6-(5,6-difluoro-2-methyl-1H-benzimidazol-1-yl)-1,3,5-triazine-2,4-diamine] yielded an EC50 of 100 to 3000 nM.

For COc1ccc(Nc2nc(N)nc(-n3c(C4CC4)nc4cc(F)ccc43)n2)cc1 [Cpd 191, 6-(2-cyclopropyl-5-fluoro-1H-benzimidazol-1-yl)-N-(4-methoxyphenyl)-1,3,5-triazine-2,4-diamine], the EC50 was 10 to 100 nM.

Compound CCc1nc2c(F)cccc2n1-c1nc(N)nc(Nc2ccc(OC(F)F)cc2)n1 [Cpd 69, N-[4-(difluoromethoxy)phenyl]-6-(2-ethyl-4-fluoro-1H-benzimidazol-1-yl)-1,3,5-triazine-2,4-diamine] has an EC50 of 10 to 100 nM.

CCc1nc2c(F)cccc2n1-c1nc(N)nc(Nc2ccc(Cl)cc2)n1 [Cpd 214, N-(4-chlorophenyl)-6-(2-ethyl-4-fluoro-1H-benzimidazol-1-yl)-1,3,5-triazine-2,4-diamine] gave an EC50 of 10 to 100 nM.

With Cc1nc2c(F)cccc2n1-c1nc(N)nc(Nc2ccc(OC(F)F)c(F)c2)n1 [Cpd 97, N-[4-(difluoromethoxy)-3-fluorophenyl]-6-(4-fluoro-2-methyl-1H-benzimidazol-1-yl)-1,3,5-triazine-2,4-diamine] the EC50 was 100 to 3000 nM.

Cc1ccc(Nc2nncc(-n3c(C)nc4ccccc43)n2)cc1 [Cpd 217, 5-(2-methyl-1H-benzimidazol-1-yl)-N-(4-methylphenyl)-1,2,4-triazin-3-amine] was tested, and the EC50 was 1 to 10 nM.

Nc1nc(Nc2ccc(OC(F)F)cc2)nc(-n2c(C3CC3)nc3ccccc32)n1 [Cpd 43, 6-(2-cyclopropyl-1H-benzimidazol-1-yl)-N-[4-(difluoromethoxy)phenyl]-1,3,5-triazine-2,4-diamine] gave an EC50 of 10 to 100 nM.

Nc1nc(Nc2ccc(C(F)(F)F)cc2)nc(-n2c(C3CC3)nc3ccc(F)cc32)n1 [Cpd 62, 6-(2-cyclopropyl-6-fluoro-1H-benzimidazol-1-yl)-N-[4-(trifluoromethyl)phenyl]-1,3,5-triazine-2,4-diamine] was tested, and the EC50 was 10 to 100 nM.

With Cc1ccc(Nc2nc(N)nc(-n3c(C4CC4)nc4c(F)cccc43)n2)cc1 [Cpd 183, 6-(2-cyclopropyl-4-fluoro-1H-benzimidazol-1-yl)-N-(4-methylphenyl)-1,3,5-triazine-2,4-diamine] the EC50 was 10 to 100 nM.

Nc1nc(Nc2ccc(Cl)cc2)nc(-n2c(C3CC3)nc3cc(F)ccc32)n1 [Cpd 193, N-(4-chlorophenyl)-6-(2-cyclopropyl-5-fluoro-1H-benzimidazol-1-yl)-1,3,5-triazine-2,4-diamine] showed an EC50 of 100 to 3000 nM.

Cc1nc2ncc(Cl)cc2n1-c1nc(N)nc(Nc2ccc(OC(F)(F)F)cc2)n1 [Cpd 152, 6-(6-chloro-2-methyl-1H-imidazo[4,5-b]pyridin-1-yl)-N-[4-(trifluoromethoxy)phenyl]-1,3,5-triazine-2,4-diamine] was tested, and the EC50 was 100 to 3000 nM.

Work on CCc1nc2ncc(F)cc2n1-c1nc(N)nc(Nc2ccc(OC(F)F)cc2)n1 [Cpd 79, N-[4-(difluoromethoxy)phenyl]-6-(2-ethyl-6-fluoro-1H-imidazo[4,5-b]pyridin-1-yl)-1,3,5-triazine-2,4-diamine] yielded an EC50 of 10 to 100 nM.

Work on Cc1nc2ccccc2n1-c1nc(NO)nc(Nc2ccc3ncccc3c2)n1 [Cpd 16, N-hydroxy-6-(2-methyl-1H-benzimidazol-1-yl)-N′-(quinolin-6-yl)-1,3,5-triazine-2,4-diamine] yielded an EC50 of 10 to 100 nM.

Compound Cc1nc2ccc(F)cc2n1-c1nc(N)nc(Nc2ccc(OC(F)F)cc2)n1 [Cpd 28, N-[4-(difluoromethoxy)phenyl]-6-(6-fluoro-2-methyl-1H-benzimidazol-1-yl)-1,3,5-triazine-2,4-diamine] has an EC50 of 10 to 100 nM.

In the case of Cc1nc2ccc(F)cc2n1-c1nc(N)nc(Nc2ccc(OC(F)F)c(F)c2)n1 [Cpd 29, N-[4-(difluoromethoxy)-3-fluorophenyl]-6-(6-fluoro-2-methyl-1H-benzimidazol-1-yl)-1,3,5-triazine-2,4-diamine], the EC50 is reported as 10 to 100 nM.

Work on CCc1nc2ccc(F)cc2n1-c1nc(N)nc(Nc2ccc(OC)cc2)n1 [Cpd 168, 6-(2-ethyl-6-fluoro-1H-benzimidazol-1-yl)-N-(4-methoxyphenyl)-1,3,5-triazine-2,4-diamine] yielded an EC50 of 1 to 10 nM.

In the case of CCc1nc2ccccc2n1-c1nc(N)nc(Nc2ccc(OC(F)F)cc2)n1 [Cpd 31, N-[4-(difluoromethoxy)phenyl]-6-(2-ethyl-1H-benzimidazol-1-yl)-1,3,5-triazine-2,4-diamine], the EC50 is reported as 10 to 100 nM.

Cc1nc2ccccc2n1-c1nc(N)nc(Nc2cccc(OC(F)F)c2)n1 [Cpd 93, N-[3-(difluoromethoxy)phenyl]-6-(2-methyl-1H-benzimidazol-1-yl)-1,3,5-triazine-2,4-diamine] was tested, and the EC50 was 100 to 3000 nM.

For Cc1nc2ccccc2n1-c1nc(NCCO)nc(Nc2cnc3ccccc3c2)n1 [Cpd 21, 2-{[4-(2-methyl-1H-benzimidazol-1-yl)-6-(quinolin-3-ylamino)-1,3,5-triazin-2-yl]amino}ethanol], the EC50 was 10 to 100 nM.
